Data: paper PMC12591484 (PLOS One, 2025)
Like-named read-outs stand apart in the source and are kept apart here. Marks after values point to notes of the source that are not given here.

Columns and labels:
[1] = target: T1, α1β3γ2L246C GABAA receptors (Homo sapiens, UniProt P14867+P18507+P28472, L285C); design: key: +: Mutant-function studies are deemed positive when bulky mutations (mostly tryptophans) at the site significantly reduce positive modulation by anesthetics; -: Negative results are indicated by “–“ symbols; conditions: previously reported; cited from earlier work
T1 construct: expressed in transfected cells; host or cells: Xenopus oocytes injected with capped mRNAs mixed 1α:1β:5γ

[2] = system: α1β3γ2L GABAA receptors, substituted cysteine at α1L232 (α1– M1); design: key: +: Mutant-function studies are deemed positive when bulky mutations (mostly tryptophans) at the site significantly reduce positive modulation by anesthetics; -: Negative results are indicated by “–“ symbols; conditions: previously reported; cited from earlier work
[3] = target: T2, α1S270Cβ3γ2L GABAA receptors (Homo sapiens, UniProt P14867+P18507+P28472, S297C); assay: Drug protection from pCMBS modification (SCAMP); type: cell-based; design: key: +: SCAMP is Substituted Cysteine Modification and Protection and is positive when adding anesthetic to cysteine modifier significantly reduces persistent post-exposure effects due to covalent modification; -: Negative results are indicated by “–“ symbols; conditions: results of this study (*)
T2 construct: expressed in transfected cells; host or cells: Xenopus oocytes injected with capped mRNA, 1α:1β:5γ
Experimental: (§1) Experiments were performed in ND-96 buffer at room temperature (20–22°C). Oocytes were placed in a low-volume (30µl) flow chamber and impaled with borosilicate microelectrodes filled with 3M KCl (resistance 0.5–3 MΩ) and voltage-clamped at −50 mV (model OC-725C; Warner Instruments, Hamden, CT, USA). Superfusate solutions in ND-96 were delivered at 2 ml/min from glass syringe reservoirs via computer-controlled valves (VC-8; Warner Instruments), a micro-manifold (ALA-VM8; ALA Scientific Instruments, Farmingdale, NY, USA), and PTFE tubing. Currents were digitized at 200 Hz on a computer running ClampEx v8.0 software (Molecular Devices, San Jose, CA, USA). Digitized traces were filtered with a 10-Hz low-pass Bessel function, leak corrected and analyzed for peak amplitude off-line using Clampfit v8 software (Molecular Devices).
(§2) Drug protection from pCMBS modification was assessed under pCMBS exposure conditions that produced approximately half of the maximal modification ratio for each mutant receptor, and a least a value of 3. This approach balanced the magnitude of functional modification signals (smaller with less pCMBS exposure) against the challenge of using a reversibly bound ligand to competitively block an irreversible covalent cysteine-modifying reaction. […] Each oocyte was used in a single SCAMP experiment. […] Etomidate was used as a positive control for anesthetic protection in α1M236C and β3M286C mutants and as a negative control in α1S270C, α1A291C, β3L231C, γ2S301C, γ2I242C, and γ2L246C mutants. R-mTFD-MPAB was used as a positive control in α1S270C, α1A291C, β3L231C, and γ2LS301C mutants and as a negative control in α1M236C and β3M286C mutants. For each cysteine mutant and protective drug combination, five oocytes were studied.
(§3) Non-linear least squares fits and statistical analyses were performed in Prism 10.4.0. (GraphPad Software, San Diego, CA, USA). […] Protection (steric inhibition of pCMBS modification) was inferred when anesthetics produced significant reductions in modification ratios relative to control (no anesthetic) values. The statistical significance threshold was p < 0.05.

[4] = system: α1β2N265Cγ2L receptors; conditions: at the tested concentration; etomidate binds extremely weakly; cited from earlier work
[5] = target: T1, α1β3γ2L246C GABAA receptors; assay: Drug protection from pCMBS modification (SCAMP); type: cell-based; design: key: +: SCAMP is Substituted Cysteine Modification and Protection and is positive when adding anesthetic to cysteine modifier significantly reduces persistent post-exposure effects due to covalent modification; -: Negative results are indicated by “–“ symbols; conditions: results of this study (*); etomidate cell also cites [9]
Experimental: as §1, §2, §3

T1 sequence (P14867 28-456, stated change not applied): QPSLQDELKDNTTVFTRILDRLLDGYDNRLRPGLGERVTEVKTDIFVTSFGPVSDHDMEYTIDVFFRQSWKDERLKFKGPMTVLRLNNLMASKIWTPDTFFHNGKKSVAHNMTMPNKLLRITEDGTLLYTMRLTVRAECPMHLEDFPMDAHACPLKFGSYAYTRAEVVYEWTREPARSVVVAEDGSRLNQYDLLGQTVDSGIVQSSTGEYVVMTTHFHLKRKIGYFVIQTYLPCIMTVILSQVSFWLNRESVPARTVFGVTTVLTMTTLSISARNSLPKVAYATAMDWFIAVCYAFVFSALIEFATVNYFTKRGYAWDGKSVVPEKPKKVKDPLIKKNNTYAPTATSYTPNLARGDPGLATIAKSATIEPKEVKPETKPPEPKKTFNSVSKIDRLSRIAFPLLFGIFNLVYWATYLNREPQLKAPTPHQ
T1 sequence (P28472 26-473): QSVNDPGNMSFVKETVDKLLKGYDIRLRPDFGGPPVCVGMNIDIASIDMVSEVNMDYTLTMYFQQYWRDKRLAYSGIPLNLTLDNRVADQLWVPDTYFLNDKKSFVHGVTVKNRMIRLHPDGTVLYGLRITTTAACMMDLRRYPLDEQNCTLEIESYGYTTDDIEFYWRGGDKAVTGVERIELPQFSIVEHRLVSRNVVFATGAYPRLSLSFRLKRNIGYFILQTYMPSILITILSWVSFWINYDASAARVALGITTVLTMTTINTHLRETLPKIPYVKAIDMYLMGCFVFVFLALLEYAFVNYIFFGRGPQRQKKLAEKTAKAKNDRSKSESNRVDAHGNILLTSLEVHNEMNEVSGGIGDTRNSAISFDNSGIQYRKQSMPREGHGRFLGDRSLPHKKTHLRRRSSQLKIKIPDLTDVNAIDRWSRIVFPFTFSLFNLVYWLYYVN
T1 sequence (P18507 40-475 L285C): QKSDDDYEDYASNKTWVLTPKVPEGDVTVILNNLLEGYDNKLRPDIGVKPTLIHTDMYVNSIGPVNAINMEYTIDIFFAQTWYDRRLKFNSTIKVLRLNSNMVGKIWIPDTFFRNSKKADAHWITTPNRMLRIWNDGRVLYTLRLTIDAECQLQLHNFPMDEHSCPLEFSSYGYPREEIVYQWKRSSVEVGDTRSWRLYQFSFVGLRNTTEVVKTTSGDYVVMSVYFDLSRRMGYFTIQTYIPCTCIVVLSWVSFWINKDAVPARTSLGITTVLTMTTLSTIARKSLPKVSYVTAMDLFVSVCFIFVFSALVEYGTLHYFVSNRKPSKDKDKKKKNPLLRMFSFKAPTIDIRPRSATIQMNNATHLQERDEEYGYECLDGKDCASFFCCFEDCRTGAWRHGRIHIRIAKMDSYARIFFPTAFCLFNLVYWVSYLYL
T2 sequence (P14867 28-456 S297C): as the sequence (P14867 28-456, stated change not applied) above, with S270C counted along it
T2 sequence (P28472 26-473): as the sequence (P28472 26-473) above
T2 sequence (P18507 40-475): as the sequence (P18507 40-475 L285C) above, with C246L counted along it

C=CCC1(c2cccc(C3(C(F)(F)F)N=N3)c2)C(=O)NC(=O)N(C)C1=O (centres unmarked) [R-mTFD-MPAB, R-5-allyl-1-methyl-5-(m-trifluoromethyl-diazirynylphenyl) barbituric acid]
SCAMP result, γ2– (M1) L246 [1]: -^[9] | SCAMP result, α1– (M1) L232 [2]: -^[9] | SCAMP result, α1+ (M2, M3) S270 [3]: +*

CCOC(=O)c1cncn1[C@H](C)c1ccccc1 [etomidate, R-etomidate]
SCAMP protection at β N265C [4]: fails to protect

CC(C)c1cc(C2(C(F)(F)F)N=N2)cc(C(C)C)c1CO [pTFD-di-iPr-BnOH]
SCAMP result, γ2– (M1) L246 [5]: +*
